Measurements reported in patent publication US20230210757A1, “IMPROVEMENTS IN OR RELATING TO ORGANIC COMPOUNDS” (Givaudan SA, priority 2020, published 2023).

Assays:
[1] = system: pigmented ageing spots on face; experiment: Clinical test, pigmented spots on face of Asian volunteers, VISIA ageing spot analysis; assay type: in vivo, human; details: cream 0.3% twice daily
Description: (§1) The study was a double-blind, randomized and placebo controlled study. The assessment was based on an inter-subject comparison between the results obtained with cream HEX at 3% (active product), cream Phenylethyl resorcinol at 0.3% and the cream placebo. The measurements were taken in controlled-atmosphere at a temperature of 21±1° C. and a humidity of 50±10%. This study was performed on 72 volunteers (healthy Asian woman aged from 45 to 85 years), having pigmented ageing spots on their faces.
The study was carried out on 2 groups of 36 volunteers each (72 volunteer in total). A cream formula was applied twice daily on face. Evaluation was carried out before treatment and after 28 and 56 days. Group 1 has applied placebo on one side of the face and HEX at 3% on the other side of the face Group 2 has tested HEX at 3% on one side of the face versus Phenylethyl Resorcinol at 0.3% on the other side of the face. […]
Under standard light, visible spots can be evaluated, in particular by visualisation of brown or red skin lesions including freckles, acne scars, hyper-pigmentation and vascular lesions. With cross polarized light in combination with Canfield's RBX® Technology brown spots can be evaluated, in particular by analysis of subsurface melanin conditions. […] The results are given in number of lesions, which is a count of lesions detected by the device, regardless of their size or intensity.

[2] = system: skin explants (Caucasian, Asian, African); experiment: Ex vivo whitening efficacy on skin explants (Fontana Masson staining, expert scoring of basal cells); assay type: cell-based, human; details: topical daily 14 days, vs untreated, extract 3%, Phenylethyl resorcinol 0.5%, hydroquinone 2%
Description: Skin fragments from 3 Asian, 3 African and 3 Caucasian subjects were cut into 1 cm^2 pieces and washed three times using antibiotics. Subcutaneous fat and lower dermis were mechanically removed under a stereomicroscope using a surgical scalpel. Skin biopsies were placed with the epithelium uppermost at an air/liquid interface on culture inserts (filter pore size 12 μm; Costar, VWR International, Fontenay-sous-Bois, France). These inserts were set on twelve wells plate for 14 days at 37° C. in a humidified incubator with 5% CO2. Medium was added to the wells so that the surface of the medium was levelled with the filter. Organ cultures were conserved with Dulbecco's […] (Invitrogen Corporation, Paisley, UK) containing antibiotic, L-glutamine, bovine pituitary extract, growth factors and fetal calf serum (DAP, Neuf-Brisach, France). […] elongata extract 3% (unpurified extract), Phenylethyl resorcinol 0.5% and hydroquinone 2% (SIGMA H9003) as positive control were topically applied daily during 14 days on the epidermis of the skin fragments, in comparison with untreated skin. […] For testing the depigmentation product, the melanin pigment present in the melanocytes and in the contiguous keratinocytes of the basal cell layer of the epidermis from treated skin in comparison with untreated skin is evaluated. Samples were formalin-fixed at day 14 and paraffin-embedded Sections (4 μm) were then stained by Fontana Masson silver method for melanin (see example 4iii). A quantitative numeration of cells containing melanin pigments was made under an optical microscope at ×40 magnification on about 300 basal cells of the epidermis, Two types of cells were counted: • score 1: unpigmented cells or cells presenting rare melanin pigments isolated in the cytoplasm • score 3: cells presenting important melanin pigment in all over the cytoplasm Epidermal melanin content was calculated as the percentage of the epidermal cells in each scoring.

[3] = system: hyperpigmentation spots on face; experiment: Clinical test, hyperpigmented spots on face of African volunteers, Mexameter analysis; assay type: in vivo, human
Description: The measurement is based on the absorption principle. The MEXAMETER MX 18 probe emits radiation of three defined wavelengths. A receiver measures the reflection of the light reflected by the skin. The position of the transmitter and receiver ensures that only diffuse light is measured. With a defined amount of emitted light the amount of light absorbed by the skin can be calculated. Melanin is measured by two wavelengths. The wavelengths were chosen according to the different absorption peaks of the melanin pigments. For the measurement of erythema (redness of skin), two different wavelengths are used to measure the absorption capacity of the epidermis. One of them corresponds to the absorption spectrum of haemoglobin. The other wavelength was chosen in order to have other pigments influencing the colour of the skin.
The study was a double-blind, randomized and placebo controlled study. The assessment was based on an inter-subject comparison between the results obtained with cream HEX at 3% (active product), cream Phenylethyl resorcinol at 0.3% and the cream placebo. The measurements were taken in controlled-atmosphere at a temperature of 20° C. and a humidity of 40%. This study was performed on 70 volunteers (aged from 19 to 57 years, having hyperpigmentation spots on their faces.
The study was carried out on 3 groups. A cream formula was applied twice daily on full face. Evaluation was carried out before treatment and after 28 and 56 days. Groups 1 and 2, with 25 volunteers each, have applied placebo and HEX at 3%, respectively, and group 3 with 20 volunteers has applied Phenylethyl Resorcinol at 0.3%.

[4] = system: pigmented ageing spots on hands; experiment: Clinical test, pigmented spots on hands of Caucasian volunteers, Mexameter analysis; assay type: in vivo, human; details: cream 0.3% twice daily
Description: The study was a double-blind, randomized and placebo controlled study. The assessment was based on an intra-subject comparison between the results obtained with cream HEX at 3% (active product), cream Phenylethyl resorcinol at 0.3% and the cream placebo. The measurements were taken in controlled-atmosphere at a temperature of 21±1° C. and a humidity of 50*10%. This study was performed on 39 volunteers (healthy Caucasian woman aged from 50 to 75 years, mean age: 61.7±5.6 years) having pigmented ageing spots on their hands.
The study was carried out on 2 groups of around 20 volunteers each (39 volunteer in total aged from […]). A cream formula was applied twice daily on hands. Evaluation was carried out before treatment and after 28 and 56 days. Group 1 has applied placebo on one hand and HEX at 3% on the other hand, and group 2 has tested HEX at 3% on one hand versus Phenylethyl Resorcinol at 0.3% on the other hand.
The measurement is based on the absorption principle. The MEXAMETER MX 18 probe emits radiation of three defined wavelengths. A receiver measures the reflection of the light reflected by the skin. The position of the transmitter and receiver ensures that only diffuse light is measured. With a defined amount of emitted light the amount of light absorbed by the skin can be calculated. Melanin is measured by two wavelengths. […]

[5] = system: pigmented ageing spots on face; experiment: Clinical test, face of Asian volunteers, spectrocolorimeter measurement; assay type: in vivo, human; details: HEX cream 3% or Phenylethyl resorcinol cream 0.3% twice daily, after 28 and 56 days
Description: as §1
The study was carried out on 2 groups of 36 volunteers each (72 volunteer in total). A cream formula was applied twice daily on face. Evaluation was carried out before treatment and after 28 and 56 days. Group 1 has applied placebo on one side of the face and HEX at 3% on the other side of the face Group 2 has tested HEX at 3% on one side of the face versus Phenylethyl Resorcinol at 0.3% on the other side of the face.
Skin colorimetric measurement was done with a MINOLTA CM700-d Spectrophotometer® equipped with a 8 mm diameter head. The Spectrophotometer® converts colours perceived by human to a digital code composed of three parameters:
L*: for clarity (from dark to light),
a*: for the green-to-red spectrum,
b*: for the blue-to-yellow spectrum.
a* and b* are chrominance parameters and L* is a luminance parameter. […]

SMILES	reduction of brown spots compared with HEX [1]	reduction of visible spots compared with HEX at 3% [1]	change of percentage of unpigmented cells ([2]; African skin explants)	change of percentage of very pigmented cells ([2]; African skin explants)	change of percentage of unpigmented cells ([2]; Asian skin explants)	change of percentage of very pigmented cells ([2]; Asian skin explants) [%]	change of percentage of unpigmented cells ([2]; Caucasian skin explants)	change of percentage of very pigmented cells ([2]; Caucasian skin explants)	change of melanin content relative to D0 ([3]; HEX cream 3% or Phenylethyl Resorcinol cream 0.3% twice daily, after 56 days)	change of melanin content relative to D0 ([3]; cream 0.3% twice daily, after 28 days) [%]	change of melanin content versus placebo ([3]; cream 0.3%, after 28 days) [%]	reduction of skin redness compared with placebo [4]	melanin reduction efficacy compared with HEX at 3% ([4]; 28 and 56 days)	b* parameter on face pigmented spots area [5]
CC(c1ccccc1)c1ccc(O)cc1O (centres unmarked) [Phenylethyl resorcinol, phenylethyl resorcinol]	slightly better than HEX	efficacy very close to those obtained with HEX at 3%	+91.7%	−22.7%	+110.7%	−29.2	+38.8%	−4.2%	not maintained after 56 days	−2.1	−4.3	same efficacy as what we obtained with the placebo	Same melanin reduction efficacy as with HEX at 3%	significant reduction of b* parameter
Oc1ccc(O)cc1 [Hydroquinone, hydroquinone]			didn't show any significant results	didn't show any significant results	+54.1%	−25.8	didn't show any significant impact	didn't show any significant impact						
